Results on nine compounds are retold here after ChEMBL document CHEMBL4627315, “Promising antifungal agents: A minireview” (2020).

In assay [1] the test system is Aspergillus niger. Briefly: Antifungal activity against Aspergillus niger assessed as zone of inhibition by serial dilution and disc diffusion method. The format is functional. For orientation: Agar diffusion results depend on both activity and mobility in agar.
In assay [2] the test system is Aspergillus flavus. Description: Antifungal activity against Aspergillus flavus assessed as zone of inhibition by serial dilution and disc diffusion method. It counts as functional.
The subject of assay [3] is Candida albicans. Description: Antifungal activity against Candida albicans assessed as zone of inhibition by serial dilution and disc diffusion method. The format is functional.
For assay [4], the system named is Rhizopus. Description: Antifungal activity against Rhizopus assessed as zone of inhibition by serial dilution and disc diffusion method. It counts as functional.
In assay [5] the test system is Aspergillus niger. Briefly: Potency index, ratio of Amphotericin B IZ to test compound IZ for Aspergillus niger assessed as zone of inhibition by serial dilution and disc diffusion method. It counts as functional.
Assay [6] concerns Aspergillus flavus. Briefly: Potency index, ratio of Amphotericin B IZ to test compound IZ for Aspergillus flavus assessed as zone of inhibition by serial dilution and disc diffusion method. It counts as functional.
For assay [7], the system named is Candida albicans. Description: Potency index, ratio of Amphotericin B IZ to test compound IZ for Candida albicans assessed as zone of inhibition by serial dilution and disc diffusion method. The format is functional.
In assay [8] the test system is Rhizopus. Description: Potency index, ratio of Amphotericin B IZ to test compound IZ for Rhizopus assessed as zone of inhibition by serial dilution and disc diffusion method. It counts as functional.
The test system of a further assay is Cryptococcus gattii. Description: Antifungal activity against Cryptococcus gattii. It counts as functional, Cryptococcus gattii VGI.
Assay [9] relates to Candida albicans. Description: Antifungal activity against Candida albicans assessed as zone of inhibition at 25 to 100 ug/ml. The format is functional.
For another assay, the system named is Saccharomyces cerevisiae. Description: Antifungal activity against Saccharomyces cerevisiae. It counts as functional.
The test system of the next assay is Cryptococcus neoformans. Description: Antifungal activity against Cryptococcus neoformans. The format is functional.
For another assay, the system named is Fusarium graminearum. Briefly: Antifungal activity against Fusarium graminearum. The format is functional.

Values after ≈ are worked out from the molar mass of the structure shown.

With `Cc1nc(-c2ccc(F)c(Br)c2)n(CCN2CCNCC2)c1C`, the “inhibition zone (IZ)” value with Aspergillus niger [1], in the assay on Aspergillus flavus [2], in the assay on Candida albicans [3] and with Rhizopus [4] was 18 - 21 mm throughout. In addition, the Ratio in the assay on Aspergillus niger [5], with Aspergillus flavus [6], in the assay on Candida albicans [7] and in the assay on Rhizopus [8] was 1.5 - 2 in each case.
Take `Clc1ccc(CO/N=C(\Cn2ccnc2)c2ccc(Cl)cc2Cl)c(Cl)c1` [OXICONAZOLE]: in the assay with Cryptococcus gattii, the MIC was at most 4 µg/mL.
For `Cc1nc(-c2ccc(F)cc2)n(CCN2CCNCC2)c1C`, the “inhibition zone (IZ)” value in the assay on Aspergillus niger [1], in the assay with Aspergillus flavus [2], in the assay on Candida albicans [3] and in the assay on Rhizopus [4] was 16 - 22 mm in each case. The Ratio with Aspergillus niger [5], in the assay on Aspergillus flavus [6], with Candida albicans [7] and in the assay on Rhizopus [8] was 1.5 - 2 in each case.
On to `OC(Cn1cncn1)(Cn1cncn1)c1ccc(F)cc1F` [FLUCONAZOLE], for which, in the assay on Candida albicans [9], the “inhibition zone (IZ)” value is reported as 2.6 - 2.8 cm.
Take `C[C@@H]1[C@H](O)[C@@H](C)/C=C/C=C/C=C/C=C/C=C/C=C/C=C/[C@H](O[C@@H]2O[C@H](C)[C@@H](O)[C@H](N)[C@@H]2O)C[C@@H]2O[C@](O)(C[C@@H](O)C[C@@H](O)[C@H](O)CC[C@@H](O)C[C@@H](O)CC(=O)O[C@H]1C)C[C@H](O)[C@H]2C(=O)O` [AMPHOTERICIN B]: the “inhibition zone (IZ)” value in the assay on Aspergillus niger [1], in the assay with Aspergillus flavus [2], in the assay with Candida albicans [3] and in the assay with Rhizopus [4] was 11 - 14 mm throughout.
`Cc1nc(-c2ccc(Cl)cc2)n(CCN2CCNCC2)c1C`: the “inhibition zone (IZ)” value in the assay with Aspergillus niger [1], with Aspergillus flavus [2], with Candida albicans [3] and with Rhizopus [4] was 16 - 20 mm in each case. In addition, the Ratio in the assay on Aspergillus niger [5], in the assay with Aspergillus flavus [6], in the assay on Candida albicans [7] and with Rhizopus [8] was 1.5 - 2 in each case.
Consider `C/C(=C(/OCCOc1ccc(Cl)cc1)c1ccc(Cl)cc1Cl)n1ccnc1` [OMOCONAZOLE], for which the MIC in the assay with Cryptococcus gattii was at most 4 µg/mL.
`Cc1nc(-c2cccs2)n(CCN2CCNCC2)c1C`: the “inhibition zone (IZ)” value in the assay with Aspergillus niger [1], in the assay with Aspergillus flavus [2], in the assay with Candida albicans [3] and with Rhizopus [4] was 16 - 200 mm each time.
Turning to `CCCCCCCCO[C@H]1[C@H](N)[C@@H](O)[C@@H](O[C@@H]2[C@@H](O)[C@H](O[C@H]3O[C@H](CN)[C@@H](O)[C@H](O)[C@H]3N)[C@@H](N)C[C@H]2N)O[C@@H]1C`, the MIC in the assay on Saccharomyces cerevisiae is 4 to 31.3 µg/mL (≈ 6.9 to 54 µM); in the assay with Cryptococcus neoformans, 3.9 to 7.8 µg/mL (≈ 6.73 to 13.5 µM); in the assay with Fusarium graminearum it was 7.8 µg/mL (≈ 13.5 µM).

For orientation: MIC means the least concentration at which growth counts as inhibited. A high value points to weaker potency.
